According to paper PMC9688530, “Development of Ic-ELISA and Colloidal Gold Lateral Flow Immunoassay for the Determination of Cypermethrin in Agricultural Samples” (Biosensors, 2022):

Test system: anti-CYP mAb
Test: colloidal gold LFIA strip
Format: binding, mouse
Design: key to T line color intensity: +++: More plus signs (+) mean darker red; ++-: More plus signs (+) mean darker red; +--: More plus signs (+) mean darker red; --- means no color band
Protocol: Colloidal gold particles were synthesized with trisodium citrate as a reducing agent according to our previous work. For the preparation of colloidal gold mAb, 6.65 μg/mL anti-CYP mAbs were added to the colloidal gold solution adjusted to pH 8.2 using 0.2 mol/L K2CO3 with shaking at room temperature for 1 h. BSA (1%) was used to block free colloidal gold particles. After 1 h, the mixture was centrifuged at 12,000 revolutions per minute (RPM) for 15 min to remove free anti-CYP mAbs. The centrifuged deposits were resuspended using one-tenth of the original volume of sodium borate solution (0.01 mol/L) containing 2% BSA and 3% sucrose and preserved at 4 °C.
As depicted in Figure 1A, the LFIA strip was assembled into four components. The center section of a PVC plate was affixed to an NC membrane. The sample pad and absorption pad were stuck on both ends of the PVC plate, and both overlapped with the NC membrane by 1 mm. A total of 2 mg/mL of hapten 5-BSA and 0.5 mg/mL of GAMA were sprayed onto the NC membrane as the test line and control line, respectively, with 5 mm intervals by an automatic dispenser. After drying at 37 °C for 12 h, the fabricated cards were cut into 4 mm wide LFIA strips.
One hundred microliters of the CYP standard solution and 4 μL of the colloidal gold mAb solution were added into a micropore and mixed. After 5 min, an LFIA strip was inserted into the mixture solution. During the mixed solution migration from the sample pad to the absorbent pad, colloidal gold mAb was captured by the T and C lines, resulting in the appearance of color bands within 10 min. When the T line disappeared or the color intensity of the T line was lower than that of the C line, the result was positive (Figure 1B,C). When the color intensity of the T line was not less than that of the C line, the result was negative (Figure 1D).
The sensitivity of the LFIA strip was evaluated by a series of CYP standard solutions (0.7, 0.6, 0.5, 0.4, 0.3, 0.2, 0.1, 0 μg/mL). For qualitative analysis, the sensitivity of the LFIA strip was appraised by the visual LOD (vLOD) and the cut-off value. The vLOD is the lowest concentration of CYP at which the lighter color of the T line is observed compared to the C line. The cut-off value is the minimum CYP concentration at which no color band appears on the T line.
The CRs of the LFIA were calculated with the following equation:CR (%) = (vLOD of CYP/vLOD of analogues) × 100%.

Q: Which “T line color intensity” value (0.3 µg/mL, Acetone 10 v%) does the source give for CC1(C)C(C=C(Cl)Cl)C1C(=O)OC(C#N)c1cccc(Oc2ccccc2)c1 (centres unmarked) [CYP, Cypermethrin] here?
A: +++

Q: And the “T line color intensity” value (0.3 µg/mL, Acetone 20 v%)?
A: +++

Q: What about the “T line color intensity” value (0.3 µg/mL, Acetone 30 v%) of the same molecule?
A: ++-

Q: What about the “T line color intensity” value (0.3 µg/mL, Acetone 40 v%) of the same molecule?
A: +--

Q: And the “T line color intensity” value (0.3 µg/mL, Acetonitrile 10 v%)?
A: +++

Q: And the “T line color intensity” value (0.3 µg/mL, Acetonitrile 20 v%)?
A: ++-

Q: And the “T line color intensity” value (0.3 µg/mL, Acetonitrile 30 v%)?
A: +--

Q: And the “T line color intensity” value (0.3 µg/mL, Acetonitrile 40 v%)?
A: ---

Q: And the “T line color intensity” value (0.3 µg/mL, Dimethyl sulfoxide 10 v%)?
A: ++-

Q: What about the “T line color intensity” value (0.3 µg/mL, Dimethyl sulfoxide 20 v%) of the same molecule?
A: +++

Q: What about the “T line color intensity” value (0.3 µg/mL, Dimethyl sulfoxide 30 v%) of the same molecule?
A: ++-

Q: What about the “T line color intensity” value (0.3 µg/mL, Dimethyl sulfoxide 40 v%) of the same molecule?
A: ++-

Q: And the “T line color intensity” value (0.3 µg/mL, Methanol 10 v%)?
A: +++

Q: What about the “T line color intensity” value (0.3 µg/mL, Methanol 20 v%) of the same molecule?
A: +++

Q: And the “T line color intensity” value (0.3 µg/mL, Methanol 30 v%)?
A: ++-

Q: What about the “T line color intensity” value (0.3 µg/mL, Methanol 40 v%) of the same molecule?
A: +--

Q: And the “T line color intensity” value (0.3 µg/mL, Na+ 0.07 mol/L)?
A: +++

Q: What about the “T line color intensity” value (0.3 µg/mL, Na+ 0.14 mol/L) of the same molecule?
A: +++

Q: And the “T line color intensity” value (0.3 µg/mL, Na+ 0.25 mol/L)?
A: +++

Q: What about the “T line color intensity” value (0.3 µg/mL, Na+ 0.5 mol/L) of the same molecule?
A: ++-

Q: What about the “T line color intensity” value (0.3 µg/mL, Na+ 1 mol/L) of the same molecule?
A: ++-

Q: What about the “T line color intensity” value (0.3 µg/mL, Na+ 2 mol/L) of the same molecule?
A: +--

Q: And the “T line color intensity” value (0.3 µg/mL, pH 6)?
A: +++

Q: And the “T line color intensity” value (0.3 µg/mL, pH 7)?
A: +++

Q: And the “T line color intensity” value (0.3 µg/mL, pH 7.4)?
A: +++

Q: What about the “T line color intensity” value (0.3 µg/mL, pH 8) of the same molecule?
A: ++-

Q: What about the “T line color intensity” value (0.3 µg/mL, pH 9) of the same molecule?
A: +--

Q: What about the “T line color intensity” value (0.4 µg/mL, Acetone 10 v%) of the same molecule?
A: ++-

Q: What about the “T line color intensity” value (0.4 µg/mL, Acetone 20 v%) of the same molecule?
A: +--

Q: And the “T line color intensity” value (0.4 µg/mL, Acetone 30 v%)?
A: +--

Q: And the “T line color intensity” value (0.4 µg/mL, Acetone 40 v%)?
A: ---

Q: And the “T line color intensity” value (0.4 µg/mL, Acetonitrile 10 v%)?
A: ++-

Q: What about the “T line color intensity” value (0.4 µg/mL, Acetonitrile 20 v%) of the same molecule?
A: +--

Q: What about the “T line color intensity” value (0.4 µg/mL, Acetonitrile 30 v%) of the same molecule?
A: +--

Q: And the “T line color intensity” value (0.4 µg/mL, Acetonitrile 40 v%)?
A: ---

Q: What about the “T line color intensity” value (0.4 µg/mL, Dimethyl sulfoxide 10 v%) of the same molecule?
A: +--

Q: What about the “T line color intensity” value (0.4 µg/mL, Dimethyl sulfoxide 20 v%) of the same molecule?
A: +--

Q: What about the “T line color intensity” value (0.4 µg/mL, Dimethyl sulfoxide 30 v%) of the same molecule?
A: +--

Q: And the “T line color intensity” value (0.4 µg/mL, Dimethyl sulfoxide 40 v%)?
A: +--

Q: And the “T line color intensity” value (0.4 µg/mL, Methanol 10 v%)?
A: +--

Q: What about the “T line color intensity” value (0.4 µg/mL, Methanol 20 v%) of the same molecule?
A: +--

Q: What about the “T line color intensity” value (0.4 µg/mL, Methanol 30 v%) of the same molecule?
A: +--

Q: What about the “T line color intensity” value (0.4 µg/mL, Methanol 40 v%) of the same molecule?
A: +--

Q: And the “T line color intensity” value (0.4 µg/mL, Na+ 0.07 mol/L)?
A: ++-

Q: And the “T line color intensity” value (0.4 µg/mL, Na+ 0.14 mol/L)?
A: ++-

Q: And the “T line color intensity” value (0.4 µg/mL, Na+ 0.25 mol/L)?
A: ++-

Q: What about the “T line color intensity” value (0.4 µg/mL, Na+ 0.5 mol/L) of the same molecule?
A: ++-

Q: What about the “T line color intensity” value (0.4 µg/mL, Na+ 1 mol/L) of the same molecule?
A: ++-

Q: What about the “T line color intensity” value (0.4 µg/mL, Na+ 2 mol/L) of the same molecule?
A: +--

Q: What about the “T line color intensity” value (0.4 µg/mL, pH 6) of the same molecule?
A: ++-

Q: And the “T line color intensity” value (0.4 µg/mL, pH 7)?
A: +--

Q: What about the “T line color intensity” value (0.4 µg/mL, pH 7.4) of the same molecule?
A: ++-

Q: What about the “T line color intensity” value (0.4 µg/mL, pH 8) of the same molecule?
A: +--

Q: And the “T line color intensity” value (0.4 µg/mL, pH 9)?
A: ---

Q: What about the “T line color intensity” value (0.6 µg/mL, Acetone 10 v%) of the same molecule?
A: +--

Q: What about the “T line color intensity” value (0.6 µg/mL, Acetone 20 v%) of the same molecule?
A: +--

Q: What about the “T line color intensity” value (0.6 µg/mL, Acetone 30 v%) of the same molecule?
A: ---

Q: And the “T line color intensity” value (0.6 µg/mL, Acetone 40 v%)?
A: ---

Q: And the “T line color intensity” value (0.6 µg/mL, Acetonitrile 10 v%)?
A: +--

Q: And the “T line color intensity” value (0.6 µg/mL, Acetonitrile 20 v%)?
A: ---

Q: And the “T line color intensity” value (0.6 µg/mL, Acetonitrile 30 v%)?
A: ---

Q: What about the “T line color intensity” value (0.6 µg/mL, Acetonitrile 40 v%) of the same molecule?
A: ---

Q: What about the “T line color intensity” value (0.6 µg/mL, Dimethyl sulfoxide 10 v%) of the same molecule?
A: ---

Q: And the “T line color intensity” value (0.6 µg/mL, Dimethyl sulfoxide 20 v%)?
A: ---

Q: What about the “T line color intensity” value (0.6 µg/mL, Dimethyl sulfoxide 30 v%) of the same molecule?
A: ---

Q: And the “T line color intensity” value (0.6 µg/mL, Dimethyl sulfoxide 40 v%)?
A: ---

Q: And the “T line color intensity” value (0.6 µg/mL, Methanol 10 v%)?
A: ---

Q: And the “T line color intensity” value (0.6 µg/mL, Methanol 20 v%)?
A: +--

Q: And the “T line color intensity” value (0.6 µg/mL, Methanol 30 v%)?
A: +--

Q: And the “T line color intensity” value (0.6 µg/mL, Methanol 40 v%)?
A: ---

Q: And the “T line color intensity” value (0.6 µg/mL, Na+ 0.07 mol/L)?
A: ---

Q: And the “T line color intensity” value (0.6 µg/mL, Na+ 0.14 mol/L)?
A: +--

Q: What about the “T line color intensity” value (0.6 µg/mL, Na+ 0.25 mol/L) of the same molecule?
A: +--

Q: What about the “T line color intensity” value (0.6 µg/mL, Na+ 0.5 mol/L) of the same molecule?
A: +--

Q: And the “T line color intensity” value (0.6 µg/mL, Na+ 1 mol/L)?
A: +--

Q: What about the “T line color intensity” value (0.6 µg/mL, Na+ 2 mol/L) of the same molecule?
A: ---

Q: And the “T line color intensity” value (0.6 µg/mL, pH 6)?
A: ---

Q: And the “T line color intensity” value (0.6 µg/mL, pH 7)?
A: ---

Q: And the “T line color intensity” value (0.6 µg/mL, pH 7.4)?
A: ---

Q: What about the “T line color intensity” value (0.6 µg/mL, pH 8) of the same molecule?
A: ---

Q: And the “T line color intensity” value (0.6 µg/mL, pH 9)?
A: ---

Q: And the cut-off value (optimal buffer)?
A: 0.6 µg/mL

Q: And the “visual limit of detection (vLOD)” value (optimal buffer)?
A: 0.3 µg/mL
